Experimental data from patent US8481536B2, “Benzotriazine inhibitors of kinases” (TargeGen, Inc., priority 2004, dated 2013).

Target: Recombinant human c-Src (Homo sapiens (Human), UniProt P12931)
Test: Src kinase inhibition in vitro (luciferase-based residual ATP, KinaseGlo)
Format: biochemical
Settings: ATP 3 μM, PTK2 substrate, 90 minutes at room temperature
Protocol: The ability of compounds of the present invention to inhibit the activity of three groups of kinases was tested. Kinases tested included the src family (primarily src and yes), some angiogenic growth factor receptors (Fgfr1, Vegfr, and Pdgfrβ) and the ephrin, EphB4. All kinase reactions were conducted in 96-well plates with a final reaction volume of 50 ul.
After reacting for about 90 minutes at room temperature, residual ATP was determined using a luciferase-based assay (KinaseGlo, Promega Corp.) as a measure of kinase activity. Data from four wells were then averaged and used to determine IC50 values for the test compounds (Prism software package, GraphPad Software, San Diego Calif.).
The test results for inhibition of Src kinase are presented in Table 1, and the test results for inhibition of some other kinases (i.e., Yes, EphB4, and Pdgfrβ) are presented in Table 2.

Chain of Recombinant human c-Src (P12931 whole entry, looked up): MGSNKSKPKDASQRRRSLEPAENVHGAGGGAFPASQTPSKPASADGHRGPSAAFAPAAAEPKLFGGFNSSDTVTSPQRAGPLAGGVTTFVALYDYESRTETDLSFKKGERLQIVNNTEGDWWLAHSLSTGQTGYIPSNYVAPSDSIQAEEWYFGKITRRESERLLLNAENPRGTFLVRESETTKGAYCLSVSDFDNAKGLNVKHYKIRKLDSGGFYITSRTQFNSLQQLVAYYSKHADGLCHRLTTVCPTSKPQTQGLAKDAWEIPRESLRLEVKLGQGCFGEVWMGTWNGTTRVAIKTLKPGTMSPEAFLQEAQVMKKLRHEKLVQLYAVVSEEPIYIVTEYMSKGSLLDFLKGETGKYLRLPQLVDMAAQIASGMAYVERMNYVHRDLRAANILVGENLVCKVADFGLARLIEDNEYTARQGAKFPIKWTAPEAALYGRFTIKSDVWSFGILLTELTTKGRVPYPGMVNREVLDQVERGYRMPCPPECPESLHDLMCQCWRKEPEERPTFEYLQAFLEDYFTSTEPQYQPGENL

IC50 [nM]	Compound
1800	Cc1cc(-c2ccccn2)cc2nnc(Nc3ccc(OCCN4CCCC4)cc3)nc12 [(5-methyl-7-pyridin-2-yl-benzo[1,2,4]triazin-3-yl)-[4-(2-pyrrolidin-1-yl-ethoxy)-phenyl]-amine]
> 10000	Cc1ccc(Nc2nnc3cc(-c4c(C)cccc4C)cc(C)c3n2)c(C)c1 [(2,4-dimethyl-phenyl)-[7-(2,6-dimethyl-phenyl)-5-methyl-benzo[1,2,4]triazin-3-yl]-amine]
72.2	Cc1cc2nc(Nc3ccc(S(=O)(=O)NCCN4CCCC4)cc3)nnc2cc1-c1ccccc1CO [4-[7-(2-Hydroxymethyl-phenyl)-6-methyl-benzo[1,2,4]triazin-3-ylamino]-N-(2-pyrrolidin-1-yl-ethyl)-benzenesulfonamide]
108	CCOc1ccc(Nc2nnc3cc(-c4c(C)cccc4C)cc(C)c3n2)cc1 [(4-ethoxy-phenyl)-[7-(2,6-dimethyl-phenyl)-5-methyl-benzo[1,2,4]triazin-3-yl]-amine]
130	Cc1cccc(C)c1-c1cc2nnc(Nc3ccccc3)nc2c(C)c1C [[7-(2,6-dimethyl-phenyl)-5,6-dimethyl-benzo[1,2,4]triazin-3-yl]-phenyl-amine]
137	Cc1cccc(C)c1-c1cc(C)c2nc(Nc3ccc(S(=O)(=O)N4CCN(C)CC4)cc3)nnc2c1 [[7-(2,6-dimethyl-phenyl)-5-methyl-benzo[1,2,4]triazin-3-yl]-[4-(4-methyl-piperazine-1-sulfonyl)-phenyl]-amine]
14	Cc1cc(-c2c(Cl)cccc2Cl)cc2nnc(Nc3ccc(S(=O)(=O)NCCN4CCCC4)cc3)nc12 [4-[7-(2,6-dichloro-phenyl)-5-methyl-benzo[1,2,4]triazin-3-ylamino]-N-(2-pyrrolidin-1-yl-ethyl)-benzenesulfonamide]
> 10000	Cc1cc(C)c(-c2cc(C)c3nc(Nc4ccccc4)nnc3c2)c(C)c1 [[5-methyl-7-(2,4,6-trimethyl-phenyl)-benzo[1,2,4]triazin-3-yl]-phenyl-amine]
140	COc1ccc(Nc2nnc3cc(-c4c(C)cccc4C)cc(C)c3n2)cc1 [(4-methoxy-phenyl)-[7-(2,6-dimethyl-phenyl)-5-methyl-benzo[1,2,4]triazin-3-yl]-amine]
> 10000	Cc1cccc(C)c1-c1cc(C)c2nc(Nc3cccc4cccnc34)nnc2c1 [[7-(2,6-dimethyl-phenyl)-5-methyl-benzo[1,2,4]triazin-3-yl]-quinolin-8-yl-amine]
> 10000	Cc1cccc(C)c1-c1cc(C)c2nc(Nc3ccccn3)nnc2c1 [[7-(2,6-dimethyl-phenyl)-5-methyl-benzo[1,2,4]triazin-3-yl]-pyridin-2-yl-amine]
2900	Cc1cc(-c2cccc(NS(C)(=O)=O)c2)cc2nnc(Nc3ccc(S(=O)(=O)NCCN4CCCC4)cc3)nc12 [4-[7-(3-methanesulfonylamino-phenyl)-5-methyl-benzo[1,2,4]triazin-3-ylamino]-N-(2-pyrrolidin-1-yl-ethyl)-benzenesulfonamide]
134	Cc1cccc(C)c1-c1cc(C)c2nc(Nc3cccc(Cl)c3)nnc2c1 [(3-chloro-phenyl)-[7-(2,6-dimethyl-phenyl)-5-methyl-benzo[1,2,4]triazin-3-yl]-amine]
> 10000	Cc1cccc(Nc2nnc3cc(-c4c(C)cccc4C)cc(C)c3n2)c1C [(2,3-dimethyl-phenyl)-[7-(2,6-dimethyl-phenyl)-5-methyl-benzo[1,2,4]triazin-3-yl]-amine]
> 10000	Cc1cc(-c2cc(OC(=O)c3ccccc3)ccc2Cl)cc2nnc(Nc3ccc(OCCN4CCCC4)cc3)nc12 [Benzoic acid 4-chloro-3-{5-methyl-3-[4-(2-pyrrolidin-1-yl-ethoxy)-phenylamino]-benzo[1,2,4]triazin-7-yl}-phenyl ester]
505	COc1cccc(Cl)c1-c1cc(C)c2nc(Nc3ccc(OCCN4CCCC4)cc3)nnc2c1 [[7-(2-chloro-6-methoxy-phenyl)-5-methyl-benzo[1,2,4]triazin-3-yl]-[4-(2-pyrrolidin-1-yl-ethoxy)-phenyl]-amine]
121	Clc1cccc(Cl)c1-c1ccc2nc(Nc3ccc(OCCN4CCCC4)cc3)nnc2c1 [[7-(2,6-dichloro-phenyl)-benzo[1,2,4]triazin-3-yl]-[4-(2-pyrrolidin-1-yl-ethoxy)-phenyl]-amine]
12.3	Cc1ccc(C#N)cc1-c1cc2nnc(Nc3ccc(S(=O)(=O)NCCN4CCCC4)cc3)nc2cc1C [4-[7-(5-Cyano-2-methyl-phenyl)-6-methyl-benzo[1,2,4]triazin-3-ylamino]-N-(2-pyrrolidin-1-yl-ethyl)-benzenesulfonamide]
25.2	Cc1ccc(C#N)cc1-c1cc(C)c2nc(Nc3ccc(S(=O)(=O)NCCN4CCCC4)cc3)nnc2c1
631	CNc1cccc(-c2cc(C)c3nc(Nc4ccc(S(=O)(=O)NCCN5CCCC5)cc4)nnc3c2)c1 [4-[5-methyl-7-(3-methylamino-phenyl)-benzo[1,2,4]triazin-3-ylamino]-N-(2-pyrrolidin-1-yl-ethyl)-benzenesulfonamide]

IC50 [nM]	Compound
> 100000	COc1ccccc1Nc1nnc2cc(-c3c(C)cccc3C)cc(C)c2n1 [(2-methoxy-phenyl)-[7-(2,6-dimethyl-phenyl)-5-methyl-benzo[1,2,4]triazin-3-yl]-amine]
1800	Cc1cccc(C)c1-c1cc(C)c2nc(NC(=O)c3ccccc3)nnc2c1 [N-[7-(2,6-dimethyl-phenyl)-5-methyl-benzo[1,2,4]triazin-3-yl]-benzamide]
> 10000	CC(=O)Nc1nnc2cc(-c3c(C)cccc3C)cc(C)c2n1 [N-[7-(2,6-dimethyl-phenyl)-5-methyl-benzo[1,2,4]triazin-3-yl]-acetamide]
12.6	Cc1cc(-c2c(O)cccc2Cl)cc2nnc(Nc3ccc(S(=O)(=O)NCCN4CCCC4)cc3)nc12 [4-(7-(2-chloro-6-hydroxyphenyl)-5-methylbenzo[e][1,2,4]triazin-3-ylamino)-N-(2-(pyrrolidin-1-yl)ethyl)benzensulfonamide]
1200	COc1ccc(Cl)cc1-c1cc(C)c2nc(Nc3ccc(OCCN4CCCC4)cc3)nnc2c1 [[7-(5-chloro-2-methoxy-phenyl)-5-methyl-benzo[1,2,4]triazin-3-yl]-[4-(2-pyrrolidin-1-yl-ethoxy)-phenyl]-amine]
315	Cc1cc2nc(Nc3ccc(S(=O)(=O)NCCN4CCCC4)cc3)nnc2cc1-c1ccccc1 [4-(6-methyl-7-phenyl-benzo[1,2,4]triazin-3-ylamino)-N-(2-pyrrolidin-1-yl-ethyl)-benzenesulfonamide]
244	Cc1cccc(C)c1-c1cc(C)c2nc(Nc3ccc(N(C)C)cc3)nnc2c1
66.5	Cc1cc2nc(Nc3ccc(S(=O)(=O)NCCN4CCCC4)cc3)nnc2cc1-c1ccccc1C(F)(F)F [4-[6-methyl-7-(2-trifluoromethyl-phenyl)-benzo[1,2,4]triazin-3-ylamino]-N-(2-pyrrolidin-1-yl-ethyl)-benzenesulfonamide]
> 10000	Cc1ccc(C)c(Nc2nnc3cc(-c4c(C)cccc4C)cc(C)c3n2)c1 [(2,5-dimethyl-phenyl)-[7-(2,6-dimethyl-phenyl)-5-methyl-benzo[1,2,4]triazin-3-yl]-amine]
48.2	Cc1cccc(C)c1-c1cc(C)c2nc(Nc3cccc(S(=O)(=O)N4CCNCC4)c3)nnc2c1 [[7-(2,6-dimethyl-phenyl)-5-methyl-benzo[1,2,4]triazin-3-yl]-[3-(piperazine-1-sulfonyl)-phenyl]-amine]
788	COc1ccc(Cl)c(-c2cc(C)c3nc(Nc4ccc(OCCN5CCCC5)cc4)nnc3c2)c1 [[7-(2-chloro-5-methoxy-phenyl)-5-methyl-benzo[1,2,4]triazin-3-yl]-[4-(2-pyrrolidin-1-yl-ethoxy)-phenyl]-amine]
10.6	CNc1cc(-c2c(C)cccc2C)cc2nnc(Nc3ccc(OCCN4CCCC4)cc3)nc12 [7-(2,6-dimethyl-phenyl)-N5-methyl-N3-[4-(2-pyrrolidin-1-yl-ethoxy)-phenyl]-benzo[1,2,4]triazine-3,5-diamine]
9.7	Cc1cccc(C)c1-c1cc(N)c2nc(Nc3ccc(OCCN4CCCC4)cc3)nnc2c1 [7-(2,6-dimethyl-phenyl)-N3-[4-(2-pyrrolidin-1-yl-ethoxy)-phenyl]-benzo[1,2,4]triazine-3,5-diamine]
> 100000	CCCCc1ccc(Nc2nnc3cc(-c4c(C)cccc4C)cc(C)c3n2)cc1 [(4-butyl-phenyl)-[7-(2,6-dimethyl-phenyl)-5-methyl-benzo[1,2,4]triazin-3-yl]-amine]
36	Cc1cccc(C)c1-c1cc(C)c2nc(Nc3ccncc3)nnc2c1 [[7-(2,6-dimethyl-phenyl)-5-methyl-benzo[1,2,4]triazin-3-yl]-pyridine-4-yl-amine]
12.3	Cc1cc2nc(Nc3ccc(OCCN4CCCC4)cc3)nnc2cc1-c1c(C)cccc1C [[7-(2,6-dimethyl-phenyl)-6-methyl-benzo[1,2,4]triazin-3-yl]-[4-(2-pyrrolidin-1-yl-ethoxy)-phenyl]-amine]
12.6	Cc1cccc(C)c1-c1cc(C)c2nc(Nc3ccc(OCCCN4CCCC4)cc3)nnc2c1 [[7-(2,6-dimethyl-phenyl)-5-methyl-benzo[1,2,4]triazin-3-yl]-{4-(3-pyrrolidin-1-yl-propoxy)-phenyl]-amine]
> 10000	Cc1cc2nc(Nc3ccc(S(=O)(=O)NCCN4CCCC4)cc3)nnc2cc1Br [[7-Bromo-6-methyl-benzo[1,2,4]triazin-3-ylamino]-N-(2-pyrrolidin-1-yl-ethyl)-benzene-4-sulfonamide]
51	Cc1cc(-c2cc(N)ccc2Cl)cc2nnc(Nc3ccc(S(=O)(=O)NCCN4CCCC4)cc3)nc12 [4-[7-(5-amino-2-chloro-phenyl)-5-methyl-benzo[1,2,4]triazin-3-ylamino]-N-(2-pyrrolidin-1-yl-ethyl)-benzenesulfonamide]
